# The NIST ThermoML archive (doi:10.1021/je500606d)
# ± gives the expanded uncertainty stated by the source.
# Conditions: Liquid, Ebulliometric method (Recirculating still)
smiles,measurement,setting,value
"COCC(CO)OC (stereo not given) [2,3-dimethoxy-1-propanol]",vapor or sublimation pressure,337.95 K,3.2 ± 3 kPa
same,vapor or sublimation pressure,368.95 K,7.84 ± 3 kPa
same,vapor or sublimation pressure,398.1 K,19.27 ± 3 kPa
same,vapor or sublimation pressure,408.55 K,27.33 ± 3 kPa
same,vapor or sublimation pressure,413.05 K,32.46 ± 3 kPa
same,vapor or sublimation pressure,419.7 K,38.8 ± 3 kPa
same,vapor or sublimation pressure,423.55 K,45.86 ± 3 kPa
same,vapor or sublimation pressure,431.55 K,59.8 ± 3 kPa
same,vapor or sublimation pressure,433.15 K,65.6 ± 3 kPa
same,vapor or sublimation pressure,434.85 K,70.66 ± 3 kPa
same,vapor or sublimation pressure,437.35 K,76.53 ± 3 kPa
same,vapor or sublimation pressure,439.75 K,83.33 ± 3 kPa
same,vapor or sublimation pressure,441.65 K,87.26 ± 3 kPa
same,vapor or sublimation pressure,444.45 K,95.73 ± 3 kPa
same,vapor or sublimation pressure,446.65 K,100.79 ± 3 kPa
